Our source for the IC50 and Ki values is ChEMBL document CHEMBL4819137, “Huprine Y - Tryptophan heterodimers with potential implication to Alzheimer's disease treatment” (Bioorg Med Chem Lett, 2021).

Each structure is given as a SMILES string.

Assay [1] concerns the target T1, Nitric oxide synthase 1 (Homo sapiens, UniProt P29475).
Description: Inhibition of recombinant human nNOS
Assay [2] concerns HepG2. In words: cells. The following applies: Homo sapiens, HepG2, 24 h.
Description: Cytotoxicity against human HepG2 cells assessed as reduction in cell viability measured after 24 hrs by MTT assay
Assay [3] deals with T2, Acetylcholinesterase (Homo sapiens, UniProt P22303).
T2 sequence (P22303 whole entry): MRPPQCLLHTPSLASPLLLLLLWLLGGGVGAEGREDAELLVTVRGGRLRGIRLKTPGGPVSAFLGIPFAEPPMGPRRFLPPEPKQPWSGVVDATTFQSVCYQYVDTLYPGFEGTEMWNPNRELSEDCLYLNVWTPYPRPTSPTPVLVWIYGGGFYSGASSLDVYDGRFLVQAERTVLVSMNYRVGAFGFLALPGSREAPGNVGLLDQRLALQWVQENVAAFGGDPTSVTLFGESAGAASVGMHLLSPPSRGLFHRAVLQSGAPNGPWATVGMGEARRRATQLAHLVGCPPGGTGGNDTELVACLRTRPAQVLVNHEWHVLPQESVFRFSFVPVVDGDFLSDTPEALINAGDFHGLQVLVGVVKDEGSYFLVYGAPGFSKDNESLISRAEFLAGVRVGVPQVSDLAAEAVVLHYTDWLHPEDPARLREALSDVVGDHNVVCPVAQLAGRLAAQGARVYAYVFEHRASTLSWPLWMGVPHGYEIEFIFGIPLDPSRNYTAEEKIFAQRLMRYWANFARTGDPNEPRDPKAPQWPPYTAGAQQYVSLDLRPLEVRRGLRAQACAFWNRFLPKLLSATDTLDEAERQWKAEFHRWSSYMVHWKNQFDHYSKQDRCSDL
Description: Inhibition of recombinant human AChE using acetylthiocholine as substrate by DTNB-reagent based Ellman's method
Assay [4] has as its target Cholinesterase (Homo sapiens, UniProt P06276).
Description: Inhibition of recombinant human BuChE using butyrylthiocholine as substrate by Ellman's method
In assay [5] the target is T1, Nitric oxide synthase 1. The source holds these as a separate data set.
Description: Inhibition of recombinant human nNOS
In assay [6] the target is T2, Acetylcholinesterase. Kind of assay: Non competitive type inhibition of human AChE assessed as inhibition constant using varying levels of acetylthiocholine as substrate by double reciprocal Lineweaver-Burk plot analysis.

T1 sequence (P29475 whole entry): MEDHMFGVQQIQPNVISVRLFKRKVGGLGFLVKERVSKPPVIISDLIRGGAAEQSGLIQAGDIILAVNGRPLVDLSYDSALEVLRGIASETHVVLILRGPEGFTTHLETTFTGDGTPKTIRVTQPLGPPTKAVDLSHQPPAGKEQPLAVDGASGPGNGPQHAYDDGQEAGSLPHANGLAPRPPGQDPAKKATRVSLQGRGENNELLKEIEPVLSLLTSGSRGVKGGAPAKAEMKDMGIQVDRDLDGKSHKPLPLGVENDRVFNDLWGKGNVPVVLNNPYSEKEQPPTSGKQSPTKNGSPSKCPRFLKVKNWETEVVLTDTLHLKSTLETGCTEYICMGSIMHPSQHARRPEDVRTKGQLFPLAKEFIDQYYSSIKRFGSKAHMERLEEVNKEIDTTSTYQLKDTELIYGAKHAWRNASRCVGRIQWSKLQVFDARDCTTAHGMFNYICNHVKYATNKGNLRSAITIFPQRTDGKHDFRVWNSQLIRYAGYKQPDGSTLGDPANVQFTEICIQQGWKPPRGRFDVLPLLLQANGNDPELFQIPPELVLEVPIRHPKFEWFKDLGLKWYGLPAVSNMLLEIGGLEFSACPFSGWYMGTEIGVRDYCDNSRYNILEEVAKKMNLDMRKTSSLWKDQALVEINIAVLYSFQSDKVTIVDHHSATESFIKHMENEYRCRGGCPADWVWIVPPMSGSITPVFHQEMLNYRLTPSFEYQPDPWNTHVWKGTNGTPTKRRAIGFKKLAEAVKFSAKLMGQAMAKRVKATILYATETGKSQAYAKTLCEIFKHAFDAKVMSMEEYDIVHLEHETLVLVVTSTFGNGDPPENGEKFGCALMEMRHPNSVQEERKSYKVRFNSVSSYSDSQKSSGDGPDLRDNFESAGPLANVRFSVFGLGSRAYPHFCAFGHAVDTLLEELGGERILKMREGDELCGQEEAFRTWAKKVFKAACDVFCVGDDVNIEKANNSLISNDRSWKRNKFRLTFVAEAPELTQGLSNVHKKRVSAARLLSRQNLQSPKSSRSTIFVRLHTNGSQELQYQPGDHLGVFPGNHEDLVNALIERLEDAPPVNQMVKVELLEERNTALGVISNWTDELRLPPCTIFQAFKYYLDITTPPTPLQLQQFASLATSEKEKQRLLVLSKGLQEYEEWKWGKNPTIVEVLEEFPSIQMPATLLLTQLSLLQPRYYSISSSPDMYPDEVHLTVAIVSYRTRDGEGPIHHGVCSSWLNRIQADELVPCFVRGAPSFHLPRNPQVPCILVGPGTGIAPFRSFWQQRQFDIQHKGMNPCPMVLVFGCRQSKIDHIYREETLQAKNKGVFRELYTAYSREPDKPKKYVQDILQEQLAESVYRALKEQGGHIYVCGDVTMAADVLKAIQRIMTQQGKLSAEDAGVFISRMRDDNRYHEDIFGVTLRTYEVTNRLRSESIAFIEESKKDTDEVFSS
Cholinesterase, sequence (P06276 whole entry): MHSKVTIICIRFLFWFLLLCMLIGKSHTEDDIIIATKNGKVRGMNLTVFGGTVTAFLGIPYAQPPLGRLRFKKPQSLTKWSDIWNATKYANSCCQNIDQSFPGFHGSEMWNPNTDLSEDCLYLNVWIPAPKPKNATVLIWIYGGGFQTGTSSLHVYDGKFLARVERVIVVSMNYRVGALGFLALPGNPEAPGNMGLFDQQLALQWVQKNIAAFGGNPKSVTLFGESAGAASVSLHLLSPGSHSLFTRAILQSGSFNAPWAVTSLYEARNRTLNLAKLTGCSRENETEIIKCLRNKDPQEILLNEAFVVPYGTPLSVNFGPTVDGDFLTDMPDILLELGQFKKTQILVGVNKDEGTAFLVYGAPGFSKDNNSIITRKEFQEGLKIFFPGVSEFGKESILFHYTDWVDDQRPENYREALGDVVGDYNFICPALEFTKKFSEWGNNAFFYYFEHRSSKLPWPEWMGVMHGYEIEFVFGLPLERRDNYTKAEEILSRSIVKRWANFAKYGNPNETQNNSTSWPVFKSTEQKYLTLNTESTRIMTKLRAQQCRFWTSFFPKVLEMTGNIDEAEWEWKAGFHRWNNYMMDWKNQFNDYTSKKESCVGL

With `COc1ccc2nc3c(c(N)c2c1)C1CC(C)=CC(C3)C1` (racemic), the IC50 is 32 µM in assay [1] and 14.9 µM in assay [2].
In turn, `N[C@@H](Cc1c[nH]c2ccccc12)C(=O)NCCCCCCNc1c2c(nc3cc(Cl)ccc13)CCCC2` gave an IC50 in assay [1] of 26 µM.
`CC1=CC2Cc3nc4cc(Cl)ccc4c(NCCCCCNC(=O)[C@@H](N)Cc4c[nH]c5ccccc45)c3C(C1)C2` (some centres undefined): the IC50 in assay [3] came to 0.0227 µM; in assay [4], 0.0683 µM; in assay [1], 24 µM; in assay [2], 4.77 µM.
For `CC1=CC2Cc3nc4cc(Cl)ccc4c(NCCCCCCCNC(=O)[C@@H](N)Cc4c[nH]c5ccccc45)c3C(C1)C2` (some centres undefined) the same measures were 0.0121 µM, 0.0845 µM, 35 µM and 12.3 µM.
For `Nc1c2c(nc3cc(Cl)ccc13)CCCC2`, the IC50 entry in assay [5] is given as “Not Active”.
Take `CC1=CC2Cc3nc4cc(Cl)ccc4c(NCCCCCCNC(=O)[C@@H](N)Cc4c[nH]c5ccccc45)c3C(C1)C2` (some centres undefined): the IC50 in assay [3] was 0.0117 µM; in assay [4], 0.0457 µM; in assay [1], 18.5 µM; in assay [2], 5.63 µM. The Ki in assay [6] is 0.023 µM.
Consider `COc1ccc2nc3c(c(N)c2c1)CCCC3`, for which, in assay [5], the IC50 entry is “Not Active”.
`CC1=CC2Cc3nc4cc(Cl)ccc4c(N)c3C(C1)C2` (racemic) gave an IC50 in assay [2] of 15.9 µM.
